Like-named read-outs stand apart in the source and are kept apart here.
Tested on: NF-κB activation
Experiment: NF-κB activation reporter assay (pNFκB-Luc luciferase) under TNF-α stimulation
Type: cell-based, human
Conditions: for inhibition at 1 µg/mL / inhibition at 10 µg/mL: Homo sapiens, read-out: The rate of inhibitory activity against NF-κB activation (%)
Method: Using a transfection reagent (Effectene; QIAGEN), the human hepatoma cell strain HepG2 or the human hysterocarcinoma cell strain HeLa was transfected with the firefly luciferase gene (Luc) contained plasmid (pNF κB-Luc Reporter Plasmid; […]) which contained oligonucleotide having five tandem copies of NF-κB binding sequences ([…]) on a upstream region of Luc, according to the QUAGEN's protocol and it was incuvated for 6-24 hours. After addition of TNF-α (40 ng/ml) with or without the test compound, the cells were incuvated for 4 hours, and intracellular luciferase activity was measured with PicaGene LT (TOYO INK MFG Co., Ltd.) and chemical luminescence measurement device ([…]luor Plus; TECAN). The inhibition ratio was measured as a ratio to the value of the luciferase activity without the test compound.

[1] = Concentration of the agent: 1 μg/mL, HepG2 or HeLa cells, TNF-α 40 ng/ml, 4 hours
[2] = Concentration of the agent: 10 μg/mL, HepG2 or HeLa cells, TNF-α 40 ng/ml, 4 hours

Row | Molecule | inhibition at 1 µg/mL [1] | inhibition at 10 µg/mL [2] | further results
1 | CCn1c2ccccc2c2cc(NC(=O)c3cc(Cl)ccc3O)ccc21 [Compound 47, N-(9-Ethylcarbazol-3-yl)-5-chloro-2-hydroxybenzamide] | 91.3% | 99.4% | 
2 | O=C(Nc1cc(Cl)cc(Cl)c1)c1ccccc1O [Compound 145] | 92.9% | 95.5% | 
3 | O=C(Nc1ccc(Cl)c(Cl)c1)c1cc(Br)ccc1O [Compound 143] | 91.6% | 93.8% | 
4 | O=C(c1cc(Br)ccc1O)N1CCCc2ccc(C(F)(F)F)cc21 [Compound 17, 1-(5-Bromo-2-hydroxy)benzoyl-7-(trifluoromethyl)-1,2,3,4-tetrahydroquinoline] |  |  | The rate of inhibitory activity against NF-κB activation (%) [1]: 19.9%; The rate of inhibitory activity against NF-κB activation (%) [2]: 96.5%
5 | O=C(Nc1cc(C(F)(F)F)ccc1C(F)(F)F)c1cc(Br)ccc1O [Compound 101] | 95.7% | 98.3% | 
6 | O=C(Nc1ccccc1O)c1cc(C(F)(F)F)cc(C(F)(F)F)c1 [Compound 11, 3,5-Bis(trifluoromethyl)-N-(2-hydroxyphenyl)benzamide] | 28.4% | 44.1% | 
7 | CCOC(=O)c1c[nH]c2c(NC(=O)c3ccccc3OC(C)=O)cccc12 [Compound 45, 7-[(2-Acetoxybenzoyl)amino]indole-3-carboxylic acid ethyl ester] | 61.7% | 91.3% | 
8 | O=C(Nc1cccc(C(F)(F)F)c1)c1cc(Br)ccc1O [Compound 106] | 80.7% | 93.3% | 
9 | Cc1cnc(NC(=O)c2cc(Br)ccc2O)s1 [Compound 185] | -1.5% | 69.7% | 
10 | O=C(Nc1cc(C(F)(F)F)cc(C(F)(F)F)c1)c1cc(-n2cccc2)ccc1O [Compound 71] | 93.8% | 97.9% | 
11 | O=C(Nc1nc(-c2ccccc2)c(-c2ccccc2)o1)c1cc(Br)ccc1O [Compound 38, 5-Bromo-N-(4,5-diphenyloxazol-2-yl)-2-hydroxybenzamide] | -10.1% | 81.8% | 
12 | Cc1nc(NC(=O)c2cc(Br)ccc2O)sc1-c1cccc(C(F)(F)F)c1 [Compound 190] | -32.4% |  | 
13 | O=C(Nc1nc(C(F)(F)F)c(-c2ccccc2)s1)c1cc(Br)ccc1O [Compound 206] | 85.1% | 89.4% | 
14 | O=C(Nc1cc(Cl)cc(Cl)c1)c1cc2ccccc2cc1O [Compound 19, N-(3,5-Dichlorophenyl)-3-hydroxy-2-naphthamide] | -55.4% | 95.1% | 
15 | O=C(Nc1cc(C(F)(F)F)cc(C(F)(F)F)c1)c1cc(N=Nc2ccc([N+](=O)[O-])cc2)ccc1O [Compound 93] | 96.2% | 98.7% | 
16 | COc1ccc(C(F)(F)F)cc1NC(=O)c1cc(Br)ccc1O [Compound 123] | 76.6% | 93.4% | 
17 | COc1ccc(O)c(C(=O)Nc2cc(Cl)cc(Cl)c2)c1 [Compound 154] | -31% | 48.2% | 
18 | O=C(Nc1ccccc1C(F)(F)F)c1cc(Cl)ccc1O [Compound 104] | 76.2% | 96.9% | 
19 | O=C(Nc1cc(C(F)(F)F)ccc1[N+](=O)[O-])c1cc(Cl)ccc1O [Compound 116] | 86.3% | 96.7% | 
20 | O=C(Nc1cc(C(F)(F)F)ccc1Cl)c1cc(Cl)cnc1O [Compound 25, N-[2-Chloro-5-(trifluoromethyl)phenyl]-5-chloro-2-hydroxynicotinamide] | 85.4% | 86.9% | 
21 | COc1cc(NC(=O)c2cc3ccccc3cc2O)cc(OC)c1 [Compound 20, N-(3,5-Dimethoxyphenyl)-3-hydroxy-2-naphthamide] | -12.1% | 86.8% | 
22 | O=C(Nc1cc(C(F)(F)F)ccc1Cl)c1cc(Br)ccc1O [Compound 114] | 88.9% | 94.1% | 
23 | O=C(Nc1ccc(S(=O)(=O)F)cc1)c1cc(N=Nc2cc(Cl)ccc2Cl)c2ccccc2c1O [Compound 23, 4-({[4-(2,5-Dichlorophenyl)azo-1-hydroxynaphthalen-2-yl]-carbonyl}amino)benzenesulfonyl fluoride] |  |  | inhibition at 1 µg/mL (4 h): 75.7%; inhibition at 10 µg/mL (4 h): 96.6%
24 | O=C(Nc1cc(C(F)(F)F)cc(C(F)(F)F)c1)c1cc(-c2ccsc2)ccc1O [Compound 73] | 81.7% | 92.9% | 
25 | O=C(O)Cc1sc(NC(=O)c2cc(Br)ccc2O)nc1-c1ccccc1 [Compound 203] | 2.4% | 72.1% | 

Row | Molecule | inhibition at 1 µg/mL [1] | inhibition at 10 µg/mL [2] | further results
26 | O=C(Nc1cccc2ccccc12)c1cc(Cl)ccc1O [Compound 32, 5-Chloro-2-hydroxy-N-(1-naphthyl)benzamide] | 89.3% | 96.3% | 
27 | O=C(NN=Cc1ccc(O)cc1O)c1cc(Cl)ccc1O [Compound 15, 5-Chloro-2-hydroxybenzoic acid (2,4-dihydroxybenzylidene)hydrazide] | 15.2% | 70.4% | 
28 | CCOC(=O)c1sc(NC(=O)c2cc(-n3cccc3)ccc2O)nc1-c1ccccc1 [Compound 222] | 74% | 90.1% | 
29 | O=C(Nc1cccc(-c2ccccc2)c1)c1cc(Cl)ccc1O [Compound 165] | 88.2% | 95.1% | 
30 | O=C(Nc1cc(F)cc(C(F)(F)F)c1)c1cc(Cl)ccc1O [Compound 110] | 94.7% | 98.9% | 
31 | COc1cc(NC(=O)c2cc(Cl)ccc2O)cc2ccccc12 [Compound 33, 5-Chloro-2-hydroxy-N-(4-methoxynaphthalen-2-yl)benzamide] | 95.1% | 99.5% | 
32 | O=C(Nc1cc(C(F)(F)F)cc(C(F)(F)F)c1)c1cc(F)ccc1O [Compound 49] | 81.5% | 94.3% | 
33 | Oc1ccc(Br)cc1CNc1cc(Cl)cc(Cl)c1 [Compound 14, N-[(5-Bromo-2-hydroxyphenyl)methyl]-3,5-dichloroaniline] | 21.7% | 98.9% | 
34 | O=C(Nc1ccnc(Cl)c1)c1cc(Cl)ccc1O [Compound 42, 5-Chloro-N-(2-chloropyridin-4-yl)-2-hydroxybenzamide] | 14.3% | 92.3% | 
35 | O=C(Nc1cc(C(F)(F)F)cc(C(F)(F)F)c1)c1cc([N+](=O)[O-])ccc1O [Compound 53] | 92% | 99.2% | 
36 | Cc1nc(NC(=O)c2cc(Br)ccc2O)sc1C [Compound 187] | 4.6% | 67.2% | 
37 | C=C(c1ccc(Cl)cc1)c1cc(Cl)ccc1O [Compound 9, 4-Chloro-2-[(4-chlorophenyl)ethen-2-yl]phenol] | 21.9% | 99.2% | 
38 | Cc1ccc(O)c(C(=O)Nc2cc(C(F)(F)F)cc(C(F)(F)F)c2)c1 [Compound 55] | 95.8% | 99.4% | 
39 | C#Cc1ccc(O)c(C(=O)Nc2cc(C(F)(F)F)cc(C(F)(F)F)c2)c1 [Compound 64] | 53.3% | 90.1% | 
40 | COc1cc(NC(=O)c2cc(Br)ccc2O)cc(C(F)(F)F)c1 [Compound 122] | 84.5% | 97.2% | 
41 | COc1ccc(C(=O)C=Cc2ccccc2OC)c(O)c1 [Compound 6, 1-(2-Hydroxy-4-methoxyphenyl)-3-(2-methoxyphenyl)propen-1-one] | 27.8% | 61.9% | 
42 | COc1cc(Cl)nc(NC(=O)c2cc(Cl)ccc2O)n1 [Compound 43, 5-Chloro-N-(6-chloro-4-methoxypyrimidin-2-yl)-2-hydroxybenzamide] | 25.5% | 78.9% | 
43 | 5-Bromo-2-hydroxy-N-(2-phenethyl)benzamide [Compound 2] |  |  | The rate of inhibitory activity against NF-κB activation (%) [1]: 18.6%; The rate of inhibitory activity against NF-κB activation (%) [2]: 83.2%
44 | CC(=O)c1cccc(NC(=O)c2cc(Cl)ccc2O)c1 [Compound 169] | 14.5% | 88.1% | 
45 | O=C(NC1Cc2ccc(C(=O)N3CCOCC3)cc2C1)c1cc(Br)ccc1O (stereo not drawn) [Compound 3, 5-Bromo-2-hydroxy-N-[5-(morpholinocarbonyl)indan-2-yl]benzamide] | 54.2% | 68.4% | 
46 | Cc1ccc(O)c(C(=O)Nc2cc(Cl)cc(Cl)c2)c1 [Compound 153] | 49.1% | 88.7% | 
47 | O=C(Nc1cc(-c2ccccc2)[nH]n1)c1cc(Br)ccc1O [Compound 36, 5-Bromo-2-hydroxy-N-(5-phenylpyrazol-3-yl)benzamide] | 26.6% | 84.7% | 
48 | COc1ccc(O)c(C(=O)Nc2cc(C(F)(F)F)cc(C(F)(F)F)c2)c1 [Compound 77] | 30.7% | 97% | 
49 | COc1cc(NC(=O)c2cc(Br)ccc2O)cc(OC)c1 [Compound 168] | 38.3% | 96.8% | 
50 | O=C(Nc1ccc(Cl)c(C(F)(F)F)c1)c1cc(Br)ccc1O [Compound 109] | 83% | 88.8% | 
